Measurements published in patent US12351602B2, “Methods of inactivating viral contaminants” (Ichnos Sciences SA, priority 2017, dated 2025).

System: MLV
Assay: VRV study, Arginine treatment of PA eluate
Experimental: Based on the stability and activity studies reported in Example 1, the most promising viral inactivation methods were further tested for their ability to inactivate viruses. The effectiveness of the viral inactivation was evaluated by doing a spiking study at Bioreliance. Test samples were taken before and after each treatment and analyzed for viral titre. First, VRV study on Arginine treatment was carried out.
Only one virus, MLV, which is a typical model virus used for biological products derived from CHO cell lines such as monoclonal antibody, was used for this study. A total of 7 runs were performed. PA eluate from development runs was used as starting material. Different stock buffers of Arginine at the different pH (pH 4.0, pH 4.75, pH 4.79 and pH 5.5) were used to reach the target pH and concentration. The samples were neutralized using 250 mM Histidine pH 12.0 buffer around pH 6.0 to stop the reaction.
Log reduction values was calculated with respect to the neutralized load sample, a 5 plate large volume plating as well as a standard titration was performed on the t=60 min sample. The neutralized load hold sample was held at 16.0° C. to 20.0° C. for 60 minutes (runs 2, 4 and 6) or 120 minutes (runs 1, 3, 5 and 7).

N=C(N)NCCC[C@H](N)C(=O)O [Arginine]
virus clearance (Arginine treatment at pH 4.0): effective (“effective”, when RF is greater than 4 log10)
log10 reduction factor (Run 5, Arginine concentration 0.38, pH 4.79, 120 min): no reduction
log10 reduction factor (Run 7, Arginine concentration 0.8, pH 5.5, 120 min): no reduction
